From publication PMC7365701 (Journal of medicinal chemistry, 2020)

Legend:
[1] = target: human ether-á-go-go (hERG) potassium channel (Homo sapiens, UniProt Q12809); experiment: hERG automated whole cell patch-clamp; assay type: cell-based; conditions: tested at 0.1, 1 and 10 μM; ≥50% inhibition at 10 μM flagged as toxic
[2] = tested on: retinal vascular leakage in diabetic rats; experiment: STZ-induced diabetic rat model, retinal vascular permeability; assay type: in vivo, Brown Norway rat; conditions: daily i.p. for 28 days
human PPARα (hPPARα) [3] = target: T1, human PPARα (hPPARα) (Homo sapiens, UniProt Q07869)
T1 sequence (Q07869 1-468): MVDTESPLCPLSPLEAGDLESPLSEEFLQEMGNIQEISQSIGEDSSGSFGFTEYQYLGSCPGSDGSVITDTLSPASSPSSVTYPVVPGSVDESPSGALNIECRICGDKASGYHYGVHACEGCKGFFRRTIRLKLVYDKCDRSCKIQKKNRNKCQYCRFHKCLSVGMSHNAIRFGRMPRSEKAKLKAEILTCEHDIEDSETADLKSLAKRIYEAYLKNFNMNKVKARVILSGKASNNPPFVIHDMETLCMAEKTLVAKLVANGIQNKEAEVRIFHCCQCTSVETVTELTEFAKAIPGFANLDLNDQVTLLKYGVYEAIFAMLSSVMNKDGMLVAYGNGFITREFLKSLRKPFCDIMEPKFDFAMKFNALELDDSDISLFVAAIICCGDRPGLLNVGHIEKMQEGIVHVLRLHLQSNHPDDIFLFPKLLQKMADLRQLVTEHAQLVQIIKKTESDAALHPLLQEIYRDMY

[4] = Stability in rat liver microsomes; assay type: in vitro ADME; conditions: compared with 4a (A91)
[5] = Stability in human liver microsomes; assay type: in vitro ADME; conditions: compared with 4a (A91)
[6] = tested on: cytochrome P450 isoforms (1A, 2C9, 2C19, 2D6, and 3A); experiment: Time-dependent CYP inhibition in pooled human liver microsomes; assay type: in vitro ADME; conditions: 10 μM, pre-incubation ± NADPH
human PPARα (hPPARα) [7] = target: T1, human PPARα (hPPARα); experiment: cell-based; conditions: EC50 hPPARα (cellular potency), luciferase reporter
[8] = target: T2, Ligand Binding Domain of PPARα (Homo sapiens, UniProt Q07869); experiment: Isothermal titration calorimetry; conditions: 4b vs 4a; 4u vs 4b
T2 sequence (Q07869 239-466 limits assumed): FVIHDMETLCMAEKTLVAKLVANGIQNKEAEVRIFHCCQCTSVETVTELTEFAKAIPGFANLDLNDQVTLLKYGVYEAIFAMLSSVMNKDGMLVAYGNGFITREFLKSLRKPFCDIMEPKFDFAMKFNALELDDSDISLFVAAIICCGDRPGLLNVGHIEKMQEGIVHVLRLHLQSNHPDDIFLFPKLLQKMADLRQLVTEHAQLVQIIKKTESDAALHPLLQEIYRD

PPARα = target: T3, PPARα (Homo sapiens, UniProt Q07869); experiment: Cellular thermal shift assay; assay type: cell-based; conditions: MIO-M1 cells, 45.5 °C
T3 sequence (Q07869 1-468): T1 sequence (Q07869 1-468)

Chain of human ether-á-go-go (hERG) potassium channel (Q12809 whole entry): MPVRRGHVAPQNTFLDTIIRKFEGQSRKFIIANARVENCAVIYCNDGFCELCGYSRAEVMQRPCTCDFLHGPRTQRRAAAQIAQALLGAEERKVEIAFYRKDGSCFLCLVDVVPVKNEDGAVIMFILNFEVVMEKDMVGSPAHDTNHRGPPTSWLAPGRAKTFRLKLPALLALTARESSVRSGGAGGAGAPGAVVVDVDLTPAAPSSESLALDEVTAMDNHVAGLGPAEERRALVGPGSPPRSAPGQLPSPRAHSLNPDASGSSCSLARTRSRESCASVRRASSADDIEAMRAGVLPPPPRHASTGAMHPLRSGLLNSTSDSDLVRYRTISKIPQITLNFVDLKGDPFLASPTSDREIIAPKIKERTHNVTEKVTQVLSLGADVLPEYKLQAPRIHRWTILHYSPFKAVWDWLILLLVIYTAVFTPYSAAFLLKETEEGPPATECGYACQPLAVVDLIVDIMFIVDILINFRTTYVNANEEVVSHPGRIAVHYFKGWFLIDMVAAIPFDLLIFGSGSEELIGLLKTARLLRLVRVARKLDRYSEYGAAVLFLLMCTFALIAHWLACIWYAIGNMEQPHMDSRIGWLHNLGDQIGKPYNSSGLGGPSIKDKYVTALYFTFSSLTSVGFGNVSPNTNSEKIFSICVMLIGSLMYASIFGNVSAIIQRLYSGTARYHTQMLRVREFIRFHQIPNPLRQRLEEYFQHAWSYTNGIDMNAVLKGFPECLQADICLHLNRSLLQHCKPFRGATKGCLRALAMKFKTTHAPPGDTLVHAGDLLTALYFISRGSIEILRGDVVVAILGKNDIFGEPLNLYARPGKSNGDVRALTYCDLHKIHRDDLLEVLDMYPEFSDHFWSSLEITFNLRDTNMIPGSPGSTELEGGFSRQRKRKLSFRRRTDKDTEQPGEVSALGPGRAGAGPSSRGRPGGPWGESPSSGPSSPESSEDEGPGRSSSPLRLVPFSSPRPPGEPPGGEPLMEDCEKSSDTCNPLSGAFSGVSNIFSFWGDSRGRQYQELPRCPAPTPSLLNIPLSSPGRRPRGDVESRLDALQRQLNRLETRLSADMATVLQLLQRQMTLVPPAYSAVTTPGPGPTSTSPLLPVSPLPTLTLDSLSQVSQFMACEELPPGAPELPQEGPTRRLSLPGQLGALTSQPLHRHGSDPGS

Structure (SMILES): COc1ccc(COc2ccc(CNc3cccc(C(=O)O)c3)cc2)cc1 [Compound 4a, 3-((4-((4-methoxybenzyl)oxy)benzyl)amino)benzoic acid]
- hERG channel liability [1]: low potency
- hepatomegaly (liver phenotype) [2]: lack signs of hepatomegaly
- retinal vascular leakage ([2]; Evans blue tracer): reduces retinal vascular leakage in diabetic rats to the range of the non-diabetic cohort

Structure (SMILES): O=C(O)c1cccc(NCc2ccc(OCc3ccc(F)cc3F)cc2)c1 [Compound 4j, 3-((4-((2,4-difluorobenzyl)oxy)benzyl)amino)benzoic acid]
- SI (human PPARα (hPPARα) [3]; SI = EC50 (PPARγ or PPARδ) / EC50 (PPARα)): >175
- selectivity for hPPARα over other PPAR isoforms (human PPARα (hPPARα) [3]; over hPPARγ and hPPARδ, no agonism up to 100 μM): > 175 fold

Structure (SMILES): O=C(O)c1cc(Cl)cc(NCc2ccc(OCc3ccc(F)cc3)cc2)c1 [Compound 4r, 3-chloro-5-((4-((4-fluorobenzyl)oxy)benzyl)amino)benzoic acid]
- Ratio (5/50) (human PPARα (hPPARα) [3]; ratio of relative light unit (RLU) signal at 5 μM and 50 μM compound): 0.11

Structure (SMILES): Cc1cc(CNc2cccc(C(=O)O)c2)ccc1OCc1ccc(F)cc1 [Compound 4u, 3-((4-((4-fluorobenzyl)oxy)-3-methylbenzyl)amino)benzoic acid]
- stability in liver microsomes [4]: significantly improved stability
- hERG channel liability [1]: not considered a hERG liability
- stability in liver microsomes [5]: significantly improved stability
- time-dependent (irreversible) inhibition of major CYP450 isoforms [6]: no signs of irreversible inhibition
- EC50 (human PPARα (hPPARα) [7]): ~40 nM
- improvement in binding affinity [8]: ~ 38 fold
- rescue of PPARα stability (PPARα): 3 fold
